Where two headings read alike, the source gives them in different places. A value given as a limit tells only on which side of the number the result lay.

The target of one data set is T1, human TRPV3 (Homo sapiens, UniProt Q8NET8).
T1 construct: expressed in transfected cells
T1 sequence (Q8NET8 1-790): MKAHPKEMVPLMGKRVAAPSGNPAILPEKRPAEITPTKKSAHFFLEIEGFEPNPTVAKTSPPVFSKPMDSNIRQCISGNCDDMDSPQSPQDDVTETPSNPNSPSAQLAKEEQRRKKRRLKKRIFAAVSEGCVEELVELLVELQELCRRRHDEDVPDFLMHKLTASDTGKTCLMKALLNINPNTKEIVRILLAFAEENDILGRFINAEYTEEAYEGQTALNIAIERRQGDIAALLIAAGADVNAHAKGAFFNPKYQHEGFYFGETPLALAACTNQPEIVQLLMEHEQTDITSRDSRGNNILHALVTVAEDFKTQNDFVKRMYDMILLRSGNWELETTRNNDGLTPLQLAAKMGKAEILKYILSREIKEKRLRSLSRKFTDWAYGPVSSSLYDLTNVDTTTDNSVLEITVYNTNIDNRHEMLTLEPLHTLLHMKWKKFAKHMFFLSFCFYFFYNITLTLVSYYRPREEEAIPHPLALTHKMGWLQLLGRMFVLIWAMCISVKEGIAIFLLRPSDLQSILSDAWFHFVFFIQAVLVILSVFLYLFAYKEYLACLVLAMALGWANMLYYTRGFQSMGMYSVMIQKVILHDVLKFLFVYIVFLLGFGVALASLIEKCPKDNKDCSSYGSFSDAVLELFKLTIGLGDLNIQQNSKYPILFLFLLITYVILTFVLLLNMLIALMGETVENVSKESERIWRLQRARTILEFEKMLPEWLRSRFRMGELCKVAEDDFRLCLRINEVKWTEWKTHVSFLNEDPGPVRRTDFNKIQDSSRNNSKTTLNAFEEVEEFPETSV
The data set is described as follows: In vitro antagonism of recombinant human TRPV3 activation (FLIPR Tetra calcium assay). In kind it is cell-based. To be noted: HEK293 cells stably expressing human TRPV3, agonist 2-APB at 80 μM. The method in brief:
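Calcium flux read over a 10 min run: compound added at 10 s to Calcium-4-loaded human TRPV3-HEK293 cells, agonist 2-APB (80 μM, its EC80) after 3 min. IC50 derived from peak-minus-baseline signal as percentage of uninhibited 2-APB response, typically averaged over at least two runs.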

Data set [1] can be described thus: In vitro human microsomal stability assay. In kind it is in vitro ADME. The conditions noted are these: human, microsomes, 0.5 h, 0.5 μM, pH 7.4. The method in brief: (§1)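 Metabolic stability was followed in NADPH-supplemented incubations at 37° C., using microsomes prepared from human liver or from Sprague-Dawley rat liver.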
Data set [2] in a line: In vitro rat microsomal stability assay. It counts as in vitro ADME, rat (Sprague-Dawley). To be noted: Sprague-Dawley, rat, microsomes, 0.5 h, 0.5 μM, pH 7.4. The method in brief: as §1
Setting [3] is: actual measured value shown parenthetically, in most cases average of at least two runs, read-out: IC50.
The mark [4] stands for this setting: reported range, read-out: IC50 (range class).

As for `OC(c1ccccn1)C1(c2ccc(C(F)(F)F)c(F)c2)CCC1` (stereo not drawn) [Example 17], at human TRPV3 (setting [3]), the half-inhibitory concentration (IC50) was determined as 1.1 µM. Moreover, in data set [1], the “HUMAN MICROSOMAL STABILITY (% REMAINING AFTER 30 MINUTES)” value was 21%. Also, in data set [2], the “RAT MICROSOMAL STABILITY (% REMAINING AFTER 30 MINUTES)” value turned out to be 13%.

With `OC(c1ccccn1)C1(c2ccccn2)CCC1` (stereo not drawn) [Example 19, pyridin-2-yl(1-pyridin-2-ylcyclobutyl)methanol], the 50% inhibitory concentration (IC50) at human TRPV3 (setting [3]) and at human TRPV3 (setting [4]) was greater than 20 µM throughout. The “HUMAN MICROSOMAL STABILITY (% REMAINING AFTER 30 MINUTES)” value in data set [1] is given as greater than 85%. For the same compound, the “RAT MICROSOMAL STABILITY (% REMAINING AFTER 30 MINUTES)” value in data set [2] was found to be 76%.

With `OC(c1ccccn1)C1(c2cccnc2)CCC1` (stereo not drawn) [Example 20, pyridin-2-yl(1-pyridin-3-ylcyclobutyl)methanol], the half-inhibitory concentration (IC50) on human TRPV3 (setting [3]) and on human TRPV3 (setting [4]) was greater than 20 µM each time. The “HUMAN MICROSOMAL STABILITY (% REMAINING AFTER 30 MINUTES)” value in data set [1] is 80%. For the same compound, the “RAT MICROSOMAL STABILITY (% REMAINING AFTER 30 MINUTES)” value in data set [2] is listed as 81%.

Regarding `OC(c1ccccn1)C1(c2ccncc2)CCC1` (stereo not drawn) [Example 21, pyridin-2-yl(1-pyridin-4-ylcyclobutyl)methanol], the IC50 on human TRPV3 (setting [3]) and at human TRPV3 (setting [4]) was greater than 20 µM in each case. The “HUMAN MICROSOMAL STABILITY (% REMAINING AFTER 30 MINUTES)” value in data set [1] amounted to 71%. In addition, the “RAT MICROSOMAL STABILITY (% REMAINING AFTER 30 MINUTES)” value in data set [2] is reported as 52%.

Take `OC(c1ccccn1)C1(c2cccc(Oc3ccccc3)c2)CCC1` (stereo not drawn) [Example 23, [1-(3-phenoxyphenyl)cyclobutyl](pyridin-2-yl)methanol]: on human TRPV3 (setting [3]), the 50% inhibitory concentration (IC50) stood at 0.93 µM. For the same compound, the “HUMAN MICROSOMAL STABILITY (% REMAINING AFTER 30 MINUTES)” value in data set [1] amounted to 0.12%. Further, the “RAT MICROSOMAL STABILITY (% REMAINING AFTER 30 MINUTES)” value in data set [2] came out at 0.69%.

For the compound `OC(c1ccccn1)C1(c2ccc(Oc3ccccc3)cc2)CCC1` (stereo not drawn) [Example 24, [1-(4-phenoxyphenyl)cyclobutyl](pyridin-2-yl)methanol], the concentration for half-maximal inhibition (IC50) on human TRPV3 (setting [3]) turned out to be 4.7 µM. Moreover, the “HUMAN MICROSOMAL STABILITY (% REMAINING AFTER 30 MINUTES)” value in data set [1] was found to be 20%. In addition, in data set [2], the “RAT MICROSOMAL STABILITY (% REMAINING AFTER 30 MINUTES)” value turned out to be 17%.

Regarding `OC(c1ccccn1)C1(c2ccc(Cc3ccccc3)cc2)CCC1` (stereo not drawn) [Example 25, [1-(4-benzylphenyl)cyclobutyl](pyridin-2-yl)methanol], on human TRPV3 (setting [3]), the IC50 is 1.18 µM. For the same compound, the “HUMAN MICROSOMAL STABILITY (% REMAINING AFTER 30 MINUTES)” value in data set [1] is on record as 21%. Moreover, in data set [2], the “RAT MICROSOMAL STABILITY (% REMAINING AFTER 30 MINUTES)” value came to 1.3%.

Consider `O[C@H](c1ccccn1)C1(c2ccc(Cl)c(Cl)c2)CCC1` [Example 26, (S)-[1-(3,4-dichlorophenyl)cyclobutyl](pyridin-2-yl)methanol], for which the IC50 at human TRPV3 (setting [3]) stood at 0.31 µM. Besides, the “HUMAN MICROSOMAL STABILITY (% REMAINING AFTER 30 MINUTES)” value in data set [1] is recorded as 6.3%. Also, in data set [2], the “RAT MICROSOMAL STABILITY (% REMAINING AFTER 30 MINUTES)” value worked out at 1.0%.

For `O[C@H](c1ccccn1)C1(c2ccc(C(F)(F)F)cc2F)CCC1` [Example 27, (S)-{1-[2-fluoro-4-(trifluoromethyl)phenyl]cyclobutyl}(pyridin-2-yl)-methanol], the IC50 on human TRPV3 (setting [3]) was found to be 1.4 µM. The “HUMAN MICROSOMAL STABILITY (% REMAINING AFTER 30 MINUTES)” value in data set [1] turned out to be 13%. The “RAT MICROSOMAL STABILITY (% REMAINING AFTER 30 MINUTES)” value in data set [2] is 15%.

In the case of `O[C@H](c1ccccn1)C1(c2ccc(C(F)(F)F)cc2)CCC1` [Example 28, (S)-pyridin-2-yl{1-[4-(trifluoromethyl)phenyl]cyclobutyl}methanol], the IC50 at human TRPV3 (setting [3]) was determined as 0.44 µM. Besides, the “HUMAN MICROSOMAL STABILITY (% REMAINING AFTER 30 MINUTES)” value in data set [1] was determined as 12%. The “RAT MICROSOMAL STABILITY (% REMAINING AFTER 30 MINUTES)” value in data set [2] is reported as 13%.

`O[C@H](c1ccccn1)C1(c2ccc(C(F)(F)F)c(F)c2)CCC1` [Example 29, (S)-{1-[3-fluoro-4-(trifluoromethyl)phenyl]cyclobutyl}(pyridin-2-yl)-methanol]: the IC50 on human TRPV3 (setting [3]) worked out at 2.54 µM. Further, the “HUMAN MICROSOMAL STABILITY (% REMAINING AFTER 30 MINUTES)” value in data set [1] stood at 5.3%. For the same compound, in data set [2], the “RAT MICROSOMAL STABILITY (% REMAINING AFTER 30 MINUTES)” value came to 45%.

For the compound `Cc1cccnc1[C@@H](O)C1(c2ccc(Cl)c(Cl)c2)CCC1` [Example 30, (S)-[1-(3,4-dichlorophenyl)cyclobutyl] (3-methylpyridin-2-yl)methanol], the IC50 at human TRPV3 (setting [3]) turned out to be 1.72 µM. Moreover, the “HUMAN MICROSOMAL STABILITY (% REMAINING AFTER 30 MINUTES)” value in data set [1] is on record as 1.5%. Also, in data set [2], the “RAT MICROSOMAL STABILITY (% REMAINING AFTER 30 MINUTES)” value is listed as 0.98%.

As to `O[C@H](c1ncccn1)C1(c2ccc(Cl)c(Cl)c2)CCC1` [Example 39, (S)-[1-(3,4-dichlorophenyl)cyclobutyl](pyrimidin-2-yl)methanol], at human TRPV3 (setting [3]), the IC50 came to 0.74 µM. Further, the “HUMAN MICROSOMAL STABILITY (% REMAINING AFTER 30 MINUTES)” value in data set [1] is 51%. Also, in data set [2], the “RAT MICROSOMAL STABILITY (% REMAINING AFTER 30 MINUTES)” value turned out to be 11%.

By IC50 is commonly meant the concentration needed to halve the response being measured.

For the origin of these results see patent US8772499B2, “TRPV3 modulators” (AbbVie Inc., priority 2011, dated 2014).
